From ChEMBL document CHEMBL5257045, “Antiparasitic Activity of Two Natural Terpenes from Salvia cuspidata against Leishmania amazonensis” (2023)
Several values for one entry are separate records, joined by “and”; a condition that tells them apart may be missing. Identical values can stand only once. Activity calls are given as the source filed them. The calls are words filed in the database; no cut-off is given here.

Key:
[1] = system: Leishmania amazonensis; assay: Induction of ROS generation in Leishmania amazonensis promastigotes assessed as reduction in mitochondrial activity at 4.3 to 29.2 uM incubated for 48 hrs by MTT assay; type: functional, organism-based; conditions: dose 4.3-29.2 µM
[2] = system: Leishmania amazonensis; assay: Induction of ROS generation in Leishmania amazonensis promastigotes assessed as reduction in endogenous GSH level at 4.3 to 29.2 uM incubated for 3 hrs by absorbance based analysis; type: functional, organism-based; conditions: dose 4.3-29.2 µM
[3] = system: Leishmania amazonensis; assay: Antileishmanial activity against Leishmania amazonensis promastigotes infected in BALB/c mouse assessed as reduction in RHLF lesion size at 1 mg/kg per day administered once a week for 4 weeks measured at 10 week; type: functional, organism-based
[4] = system: Leishmania amazonensis; assay: Antileishmanial activity against Leishmania amazonensis MHOM/VE/84/MEL promastigotes assessed as parasite mortality at 29.2 uM measured after 1 day by dye exclusion method (reference value: 14.5 +/- 3.5); type: functional; conditions: 24 h
[5] = system: Leishmania amazonensis; assay: Antileishmanial activity against Leishmania amazonensis MHOM/VE/84/MEL promastigotes assessed as parasite mortality at 29.2 uM measured after 2 day by dye exclusion method (reference value: 11.6 +/- 3.3); type: functional; conditions: 48 h
[6] = system: Leishmania amazonensis; assay: Antileishmanial activity against Leishmania amazonensis MHOM/VE/84/MEL promastigotes assessed as parasite mortality at 4.3 uM measured after 1 day by dye exclusion method (reference value: 14.5 +/- 3.5); type: functional; conditions: 24 h
[7] = system: Leishmania amazonensis; assay: Antileishmanial activity against Leishmania amazonensis MHOM/VE/84/MEL promastigotes assessed as parasite mortality at 4.3 uM measured after 2 day by dye exclusion method (reference value: 11.6 +/- 3.3); type: functional; conditions: 48 h
[8] = system: Leishmania amazonensis; assay: Antileishmanial activity against Leishmania amazonensis promastigotes infected in BALB/c mouse assessed as reduction of IgG1 level at 1 mg/kg per day administered once a week for 4 weeks measured at 10 week by ELISA assay; type: functional, organism-based
[9] = system: Leishmania amazonensis; assay: Antileishmanial activity against Leishmania amazonensis promastigotes infected in BALB/c mouse assessed as reduction of IgG level at 1 mg/kg per day administered once a week for 4 weeks measured at 10 week by ELISA assay; type: functional, organism-based
[10] = system: Leishmania amazonensis; assay: Antileishmanial activity against Leishmania amazonensis MHOM/VE/84/MEL promastigotes assessed as parasite mortality at 14.3 uM measured after 2 day by dye exclusion method (reference value: 11.6 +/- 3.3); type: functional; conditions: 48 h
[11] = system: Leishmania amazonensis; assay: Antileishmanial activity against Leishmania amazonensis promastigotes infected in BALB/c mouse assessed as reduction of parasite burden at 1 mg/kg per day administered once a week for 4 weeks measured at 10 week by limit dilution assay; type: functional, organism-based
[12] = system: Leishmania amazonensis; assay: Antileishmanial activity against Leishmania amazonensis promastigotes infected in BALB/c mouse assessed as reduction of splenic index at 1 mg/kg per day administered once a week for 4 weeks measured at 10 week; type: functional, organism-based
[13] = system: Leishmania amazonensis; assay: Antileishmanial activity against Leishmania amazonensis MHOM/VE/84/MEL promastigotes assessed as parasite mortality at 14.3 uM measured after 1 day by dye exclusion method (reference value: 14.5 +/- 3.5); type: functional; conditions: 24 h
[14] = system: Leishmania amazonensis; assay: Induction of ROS generation in Leishmania amazonensis promastigotes at 4.3 to 29.2 uM incubated for 48 hrs followed by probe addition measured after 1 hr by H2DCFDA probe based fluorometry analysis; type: functional, organism-based; conditions: dose 4.3-29.2 µM, time 49.0 hrs
[15] = system: Leishmania amazonensis; assay: Antileishmanial activity against Leishmania amazonensis promastigotes infected in BALB/c mouse assessed as reduction in RHLF lesion size at 400 mg/kg per day, ip administered for 30 days; type: functional, organism-based; conditions: time 30.0 day
[16] = system: Leishmania amazonensis; assay: Antileishmanial activity against Leishmania amazonensis promastigotes infected in BALB/c mouse assessed as reduction of IgG1 level at 400 mg/kg per day, ip administered for 30 days measured at 10 week by ELISA assay; type: functional, organism-based; conditions: time 30.0 day
[17] = system: Leishmania amazonensis; assay: Antileishmanial activity against Leishmania amazonensis promastigotes infected in BALB/c mouse assessed as wound closure at 400 mg/kg per day, ip administered for 30 days; type: functional, organism-based; conditions: time 30.0 day
[18] = system: Leishmania amazonensis; assay: Antileishmanial activity against Leishmania amazonensis promastigotes infected in BALB/c mouse assessed as reduction of parasite burden at 400 mg/kg per day, ip administered for 30 days measured at 10 week by limit dilution assay; type: functional, organism-based; conditions: time 30.0 day
[19] = system: Leishmania amazonensis; assay: Antileishmanial activity against Leishmania amazonensis promastigotes infected in BALB/c mouse assessed as reduction of splenic index at 400 mg/kg per day, ip administered for 30 days measured at 10 week; type: functional, organism-based; conditions: time 30.0 day
[20] = system: Leishmania amazonensis; assay: Antileishmanial activity against Leishmania amazonensis promastigotes infected in BALB/c mouse assessed as reduction of IgG level at 400 mg/kg per day, ip administered for 30 days measured at 10 week by ELISA assay; type: functional, organism-based; conditions: time 30.0 day
[21] = system: Leishmania donovani; assay: Antileishmanial activity against Leishmania donovani MHOM/IN/83/AG83 promastigotes infected in BALB/c mouse assessed as reduction of parasite burden in spleen at 5 to 10 mg/kg per day; type: functional, organism-based; conditions: dose 5-10 mg/kg
[22] = system: Leishmania amazonensis; assay: Antileishmanial activity against Leishmania amazonensis MHOM/VE/84/MEL promastigotes assessed as parasite mortality at 38.4 uM measured after 2 day by dye exclusion method (reference value: 11.6 +/- 3.3); type: functional; conditions: 48 h
[23] = system: Leishmania amazonensis; assay: Antileishmanial activity against Leishmania amazonensis MHOM/VE/84/MEL promastigotes assessed as parasite mortality at 38.4 uM measured after 1 day by dye exclusion method (reference value: 14.5 +/- 3.5); type: functional; conditions: 24 h

Row | Compound | Activity [1] | Activity [2] | Activity [3] | mortality at 29.2 µM [4] | mortality at 29.2 µM [5] | mortality [6] | mortality at 4.3 µM [7] | Activity [8] | Activity [9] | mortality at 14.3 µM [10] | Activity [11] | Activity [12] | mortality at 14.3 µM [13] | Activity [14] | further results
1 | CC(C)C1=C(O)C(=O)C2=C(C=C[C@H]3[C@]4(CCC[C@]3(C)C(=O)O4)C2)C1=O | Active | Active | Active | 65% | 77.5% | 10% and 26.5% | 26.5% | Active | Active | 51.5% | Active | Active | 47% | Active | –
2 | C[C@@]12CCC[C@]3(COC1=O)CC1=C(C=C[C@@H]32)C(=O)C=C(O)C1=O | Active | Active | Active | 96.5% | 98.5% | 33.5% and 87.5% | 87.5% | Active | Active | 92% | Active | Active | 55% | Active | –
3 | MEGLUMINE ANTIMONATE | – | – | – | – | – | – | – | – | – | – | – | – | – | – | Activity [15]: Active; Activity [16]: Active; Activity [17]: inactive; Activity [18]: Active; Activity [19]: Active; Activity [20]: Active
4 | C[C@@H]1CC[C@H]2[C@@H](C)C(=O)O[C@@H]3O[C@@]4(C)CC[C@@H]1[C@]32OO4 | – | – | – | – | – | – | – | – | – | – | – | – | – | – | Activity [21]: Active
5 | CC(=O)N1CCN(c2ccc(OCC3COC(Cn4ccnc4)(c4ccc(Cl)cc4Cl)O3)cc2)CC1 (configuration not stated) [KETOCONAZOLE] | – | – | – | – | – | – | – | – | – | – | – | – | – | – | mortality at 38.4 µM [22]: 79.4%; mortality at 38.4 µM [23]: 48.5%
